According to ChEMBL document CHEMBL5518186, “Discovery of the cereblon-recruiting tubulin PROTACs effective in overcoming Taxol resistance in vitro and in vivo” (Eur J Med Chem, 2024):
The source made the active and inactive calls. No cut-off for these calls is given here.

Experiments:
[1] = target: T1, Protein cereblon/Tubulin beta (Homo sapiens) (UniProt P68371+Q9H4B7+Q13509+P04350+Q3ZCM7+P07437+Q13885+Q9BVA1+Q9BUF5+Q96SW2+A6NNZ2); assay: Protac activity at CRBN/beta-tubulin in human A549 cells assessed as reduction in beta-tubulin level at 0.25 uM pretreated with CA-4 for 2 hrs followed by compound addition and measured after 24 hrs by immunoblotting analysis; format: cell-based
[2] = target: T2, Protein cereblon/Tubulin beta-3 chain (Homo sapiens, UniProt Q13509+Q96SW2); assay: Protac activity at CRBN/beta3-tubulin in human HepG2 cells assessed as reduction in beta3-tubulin level at 10 to 1000 nM incubated for 48 hrs by immunoblotting analysis; format: cell-based; details: dose 10-1000 nM
T2 sequence (Q13509 whole entry, looked up): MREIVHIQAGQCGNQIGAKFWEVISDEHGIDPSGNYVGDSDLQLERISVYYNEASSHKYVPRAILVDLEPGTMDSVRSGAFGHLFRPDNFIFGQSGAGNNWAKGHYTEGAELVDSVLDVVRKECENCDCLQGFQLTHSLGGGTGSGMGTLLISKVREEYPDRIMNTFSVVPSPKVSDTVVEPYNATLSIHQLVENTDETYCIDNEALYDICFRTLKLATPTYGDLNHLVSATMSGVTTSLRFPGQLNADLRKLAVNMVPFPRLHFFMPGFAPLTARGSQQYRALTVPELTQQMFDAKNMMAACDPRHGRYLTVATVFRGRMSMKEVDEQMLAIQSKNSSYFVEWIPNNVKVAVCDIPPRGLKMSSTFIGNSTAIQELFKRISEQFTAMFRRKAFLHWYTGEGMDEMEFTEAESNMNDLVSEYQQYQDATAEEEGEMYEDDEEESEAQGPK
T2 sequence (Q96SW2 whole entry, looked up): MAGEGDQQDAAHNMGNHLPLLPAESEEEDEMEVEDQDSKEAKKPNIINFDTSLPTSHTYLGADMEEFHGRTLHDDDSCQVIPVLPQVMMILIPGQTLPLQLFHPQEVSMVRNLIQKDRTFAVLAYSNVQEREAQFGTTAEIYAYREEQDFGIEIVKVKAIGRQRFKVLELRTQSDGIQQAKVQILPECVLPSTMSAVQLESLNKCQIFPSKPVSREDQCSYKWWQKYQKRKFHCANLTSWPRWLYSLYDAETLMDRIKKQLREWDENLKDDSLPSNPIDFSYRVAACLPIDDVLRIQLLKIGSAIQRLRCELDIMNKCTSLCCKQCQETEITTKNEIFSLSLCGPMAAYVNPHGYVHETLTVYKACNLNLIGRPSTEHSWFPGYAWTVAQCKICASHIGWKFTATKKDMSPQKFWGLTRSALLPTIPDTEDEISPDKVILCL

A549 [3] = assay: Induction of apoptosis in human A549 cells assessed as increase in apoptotic rate at 0.002 uM incubated for 48 hrs by Annexin V-FITC/PI staining based flow cytometry analysis (reference value: 1.3%); format: functional
A549 [4] = assay: Induction of cell cycle arrest in human A549 cells assessed as accumulation of cells at S phase at 0.01 uM incubated for 24 hrs by PI staining based flow cytometry analysis (reference value: 1.39%); format: functional
[5] = target: T3, Protein cereblon-alpha tubulin (Homo sapiens) (UniProt P0DPH7+P68366+Q71U36+P68363+Q9BQE3+Q6PEY2+A6NHL2+Q9NY65+Q96SW2); assay: Protac activity at CRBN/alpha-tubulin in human A549/Taxol cells assessed as reduction in alpha-tubulin level at 0.25 uM pretreated with CA-4 for 2 hrs followed by compound addition and measured after 48 hrs by immunoblotting analysis; format: cell-based
[6] = target: T2, Protein cereblon/Tubulin beta-3 chain; assay: Protac activity at CRBN/beta3-tubulin in human A549/Taxol cells assessed as reduction in beta3-tubulin level at 0.25 uM pretreated with CA-4 for 2 hrs followed by compound addition and measured after 48 hrs by immunoblotting analysis; format: cell-based
[7] = target: T1, Protein cereblon/Tubulin beta (Homo sapiens); assay: Protac activity at CRBN/beta-tubulin in human A549/Taxol cells assessed as reduction in beta-tubulin level at 0.25 uM pretreated with CA-4 for 2 hrs followed by compound addition and measured after 48 hrs by immunoblotting analysis; format: cell-based
A549/TR [8] = assay: Induction of apoptosis in human A549/Taxol cells at 0.05 uM incubated for 48 hrs by Annexin V-FITC/PI staining based flow cytometry analysis; format: functional
[9] = target: T2, Protein cereblon/Tubulin beta-3 chain; assay: Protac activity at CRBN/beta3-tubulin in human A549 cells assessed as reduction in beta3-tubulin level at 0.25 uM pretreated for 48 hrs followed by compound washout and measured after 24 hrs by immunoblotting analysis; format: cell-based
HUVEC = assay: Antiangiogenic activity in HUVECs assessed as reduction in tube area at 2.5 nM incubated for 6 to 8 hrs by inverted microscopic analysis; format: functional, cell-based; details: Homo sapiens, time 6-8 hrs
A549 [10] = assay: Antitumor activity against human A549 cells xenografted in nude mouse assessed as decrease in tumor weight at 15 mg/kg, ip administered once every 2 days for 23 days by Vernier caliper method; format: functional, organism-based; details: time 23.0 day
[11] = target: T1, Protein cereblon/Tubulin beta (Homo sapiens); assay: Protac activity at CRBN/beta-tubulin in human A549 cells assessed as reduction in beta-tubulin level at 0.25 uM pretreated with MG-132 followed by compound addition and measured after 24 hrs by immunoblotting analysis; format: cell-based
A549 [12] = assay: Induction of cell cycle arrest in human A549 cells assessed as accumulation of cells at S phase at 0.002 uM incubated for 24 hrs by PI staining based flow cytometry analysis (reference value: 1.39%); format: functional
[13] = target: T3, Protein cereblon-alpha tubulin (Homo sapiens); assay: Protac activity at CRBN/alpha-tubulin in human HeLa cells assessed as reduction in alpha-tubulin level at 10 to 1000 nM incubated for 48 hrs by immunoblotting analysis; format: cell-based; details: dose 10-1000 nM
[14] = target: T3, Protein cereblon-alpha tubulin (Homo sapiens); assay: Protac activity at CRBN/alpha-tubulin in human A549 cells assessed as reduction in alpha-tubulin level at 0.25 uM by immunoblotting analysis; format: cell-based; details: time 6-72 hrs, TDE = time-dependent effect
[15] = target: T1, Protein cereblon/Tubulin beta (Homo sapiens); assay: (§1) Protac activity at CRBN/beta-tubulin in human A549 cells assessed as reduction in beta-tubulin level incubated for 48 hrs by immunoblotting analysis; format: cell-based
[16] = target: Protein cereblon/Tubulin beta; assay: as §1; format: cell-based
[17] = target: T2, Protein cereblon/Tubulin beta-3 chain; assay: Protac activity at CRBN/beta3-tubulin in human A549 cells assessed as reduction in beta3-tubulin level at 0.25 uM pretreated with CA-4 for 2 hrs followed by compound addition and measured after 24 hrs by immunoblotting analysis; format: cell-based
[18] = Resistance index, ratio of IC50 for human MCF7/Taxol cells to IC50 for human MCF7 cells; format: functional
[19] = target: T3, Protein cereblon-alpha tubulin (Homo sapiens); assay: Protac activity at CRBN/alpha-tubulin in human MCF7 cells assessed as reduction in alpha-tubulin level at 10 to 1000 nM incubated for 48 hrs by immunoblotting analysis; format: cell-based; details: dose 10-1000 nM
HepG2 = assay: Induction of DNA damage in human HepG2 cells assessed as gamma-H2AX level; format: functional, cell-based
A549/TR [20] = assay: Inhibition of cell growth in human A549/Taxol cells incubated for 72 hrs by SRB method; format: functional, cell-based
A549/TR [21] = assay: Induction of cell cycle arrest in human A549/Taxol cells assessed as accumulation of cells at G2/M phase at 0.002 uM incubated for 24 hrs by PI staining based flow cytometry analysis (reference value: 17.02%); format: functional
A549 [22] = assay: Antitumor activity against human A549 cells xenografted in nude mouse assessed as tumor growth inhibition at 15 mg/kg, […] administered once every 2 days for 23 days by Vernier caliper method; format: functional; details: A549, 552 h, time 23 day, read-out: TGI
[23] = target: T3, Protein cereblon-alpha tubulin (Homo sapiens); assay: Protac activity at CRBN/alpha-tubulin in human A549 cells assessed as reduction in alpha-tubulin level at 0.25 uM pretreated with CA-4 for 2 hrs followed by compound addition and measured after 24 hrs by immunoblotting analysis; format: cell-based
MCF7 = assay: Inhibition of cell growth in human MCF7 cells incubated for 72 hrs by SRB method; format: functional, cell-based; details: MCF7, 72 h
[24] = target: T3, Protein cereblon-alpha tubulin (Homo sapiens); assay: Protac activity at CRBN/alpha-tubulin in human A549 cells assessed as reduction in alpha-tubulin level at 0.25 uM after 72 hrs by immunoblotting analysis; format: cell-based; set-up: scale not given: the % may be the effect or the level left
U-937 = assay: Antiproliferative activity against human U-937 cells incubated for 72 hrs; format: functional, cell-based; details: U-937, 72 h
A549/TR [25] = assay: Inhibition of colony formation in human A549/Taxol cells incubated for 24 hrs followed by media replacement at every 3 days for 14 days by crystal violet staining based assay; format: functional, cell-based; details: dose 2-50 nM, time 14.0 day
MGC-803 = assay: Antiproliferative activity against human MGC-803 cells incubated for 72 hrs; format: functional, cell-based; details: MGC-803, 72 h
[26] = target: T3, Protein cereblon-alpha tubulin (Homo sapiens); assay: Protac activity at CRBN/alpha-tubulin in human A549/Taxol cells assessed as reduction in alpha-tubulin level at 0.25 uM pretreated with pomalidomide for 2 hrs followed by compound addition and measured after 48 hrs by immunoblotting analysis; format: cell-based
[27] = target: T1, Protein cereblon/Tubulin beta (Homo sapiens); assay: Protac activity at CRBN/beta-tubulin in human MCF7 cells assessed as reduction in beta-tubulin level at 10 to 1000 nM incubated for 48 hrs by immunoblotting analysis; format: cell-based; details: dose 10-1000 nM
A549/TR [28] = assay: Induction of cell cycle arrest in human A549/Taxol cells assessed as accumulation of cells at S phase at 0.01 uM incubated for 24 hrs by PI staining based flow cytometry analysis (reference value: 2.85%); format: functional

Structure (SMILES): COc1ccc(/C=C\c2cc(OC)c(OC)c(OC)c2)cc1OC(=O)CCCNc1cccc2c1C(=O)N(C1CCC(=O)NC1=O)C2=O (centres undefined)
- Activity [1]: inactive
- Activity [2]: Active
- Activity (A549 [3]): 7.23%
- Activity (A549 [4]): 15.35%
- Activity [5]: inactive
- Activity [6]: inactive
- Activity [7]: inactive
- Activity (A549/TR [8]): 36.2%
- Activity [9]: inactive
- Activity (HUVEC): Active
- Activity (A549 [10]): Active
- Activity [11]: inactive
- Activity (A549 [12]): 5.65%
- Activity [13]: Active
- Activity [14]: Tde
- Activity [15]: Dose-Dependent Effect
- DC50 [16]: 856 nM
- Activity [17]: inactive
- Ratio IC50 [18]: 0.5
- Activity [19]: Active
- Activity (HepG2): Active
- IC50 (A549/TR [20]): 5 nM
- inhibition (A549/TR [20]): Dose-Dependent Effect
- Activity (A549/TR [21]): 23.69%
- inhibition in vivo at 15 mg/kg (A549 [22]): 34.1%
- Activity [23]: inactive
- IC50 (MCF7): 12 nM
- Activity [24]: 43.7%
- IC50 (U-937): 18 nM
- inhibition (A549/TR [25]): Dose-Dependent Effect
- IC50 (MGC-803): 8 nM
- Activity [26]: inactive
- Activity [27]: Active
- Activity (A549/TR [28]): 10.77%
